Reference: patent publication EP2848696A1, “Caspase-1 imaging probes” (Sanofi-Aventis Deutschland GmbH, priority 2013, dated 2015)

Key:
Caspase-1 [1] = molecular target: T1, Caspase-1 (Homo sapiens, UniProt P29466); test: In vitro cleavage of the probe by caspase-1 (fluorescence / FRET change); format: biochemical; settings: for in vitro cleavage: 10 µM probe, 10 nM caspase-1, E/S ratio 1/1000, 25 cycles: 1 min. intervals
T1 sequence (P29466 120-297 limits assumed): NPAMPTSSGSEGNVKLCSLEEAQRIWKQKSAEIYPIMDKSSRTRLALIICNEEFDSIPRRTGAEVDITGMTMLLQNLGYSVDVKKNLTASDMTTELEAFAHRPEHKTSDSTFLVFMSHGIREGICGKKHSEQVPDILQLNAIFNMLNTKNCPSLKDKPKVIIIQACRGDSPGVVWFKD
T1 sequence (P29466 317-404 limits assumed): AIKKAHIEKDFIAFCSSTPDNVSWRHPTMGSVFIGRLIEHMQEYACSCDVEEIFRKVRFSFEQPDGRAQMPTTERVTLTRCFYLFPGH
Method: (§1) The E/S ratio was 1/1000, 25 cycles: 1 min. intervals. • Figure 5: Cellular assay with Probe III; PMA=Phorbol-12-myristate-13-acetate; LPS=Lipopolysaccharide; zVAD=carbobenzoxy-valyl-alanyl-asparty-[O-methyl]-fluoromethylketone • Figure 6A-E: Kinetic characterization of probes II, VI, V, IV, and VII. • Figure 7: Cell permeability assay.

Caspase-1 [2] = molecular target: T1, Caspase-1; test: Specificity of the probe towards caspase-1; format: biochemical; settings: summary of biological assays
Method: as §1, with “The E/S ratio was 1/1000, 25 cycles: 1 min. intervals. • Figures 4A-C: show the in vitro cleavage of 10 µM probe VI in the presence of 10 nM caspase-1. […] The” for “The”

[3] = Cellular toxicity (summary statement); format: cell-based; settings: summary of biological assays

Method for THP-1 cells: THP-1 cells were differentiated with PMA in 4-well glass chambers for 48 hours. 2 hours before the assay zVAD-fmk was added to negative controls. Probes were then added to the cells in 5 µM final concentration and the probe uptake was studied by fluorescence microscopy.

Row | Cellular entry (time) (THP-1 cells) | Compound | in vitro cleavage (Caspase-1 [1]) | specificity (Caspase-1 [2]) | toxicity [3] | FRET change (Caspase-1 [1]; Figure 1A, cleavage by caspase-1) | change of fluorescence intensity in response to cleavage by caspase-1 (Caspase-1 [1]; Figure 1A, dependence on enzyme dose) | FRET change (concentration dependence) (Caspase-1 [1]; summary of biological assays) | Cell permeability (THP-1 cells)
1 | – | CCN(CC)c1ccc2cc(C(=O)NCC(=O)NCCCCCCCCNC(=O)[C@H](CC(=O)O)NC(=O)[C@@H]3CCCN4C(=O)CC[C@H](NC(=O)c5cc6ccc(OC)cc6oc5=O)C(=O)N34)c(=O)oc2c1 [Probe VI] | cleaved very efficiently | – | – | – | – | – | –
2 | - Cellular entry within 5-7 min. | CCCCCCCCN(CCCCCCCC)c1ccc2c(COC(=O)CCCC(=O)NNC(=O)[C@H](CC(=O)O)NC(=O)[C@@H]3CCCN4C(=O)CC[C@H](NC(=O)c5cc6ccc(OC)cc6oc5=O)C(=O)N34)cc(=O)oc2c1 [Probe I] | – | – | – | – | – | – | –
3 | – | CCN(CC)c1ccc2cc(C(=O)NNC(=O)[C@H](CC(=O)O)NC(=O)[C@@H]3CCCN4C(=O)CC[C@H](NC(=O)c5cc6ccc(OC)cc6oc5=O)C(=O)N34)c(=O)oc2c1 [Probe III] | cleaved very efficiently | - Superiorly specific | - No sign of toxicity | about 10 fold | enzyme dose-dependent manner | - Concentration dependent FRET change | - Cell permeability
